Like-named read-outs stand apart in the source and are kept apart here.
Tests used:
[1] = target: T1, Full-length (FL)-PRMT5-MEP50 enzyme complex (Homo sapiens, UniProt O14744); test: PRMT5-MEP50 Enzyme Methylation Assay (Version A); assay type: biochemical
T1 construct: Full-length (FL)-PRMT5-MEP50 enzyme complex (recombinant proteins from baculovirus-transfected Sf21 cells: FL-PRMT5; MW=73837 kDa and FL-MEP50; MW=38614); made in house; host or cells: baculovirus-transfected Sf21 cells
Method in brief: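 Compound was pre-incubated with enzyme for 60 min, then reacted 150 min at 37° C. at final 1.0 nM PRMT5-MEP50, 15 μM SAM and 75 nM biotinylated H4R3(Me1) peptide, in 50 mM Bicine pH 8.0 with 1% DMSO. SAMDI mass-spectrometric readout of Me1→Me2 conversion. EC50 from 4- or 7-parameter regression.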

[2] = test system: symmetric dimethylation of arginine (SDMA) of PRMT5 substrates in MCF-7 cells; test: PRMT5 Cell Target Engagement (TE) Assay; assay type: cell-based; conditions: Homo sapiens, MCF7, 72 h, 3 days treatment, SDMA high content imaging
Method in brief: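 MCF-7 cells treated 3 days at 37 °C with a ten-point 1:3 titration from 10000 nM. Fixed cells immunostained with anti-SDMA and Alexa488 secondary; nuclear fluorescence quantified by high-content imaging versus DMSO wells, with IC50 from a 4-parameter fit.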

[3] = second value of 7 parameter biphasic fit, read-out: Enzyme Methylation Assay Version A (EC50 2)
[4] = single EC50 = 4 parameter single site sigmoidal fit, EC50 1 = first value of 7 parameter biphasic fit, read-out: Enzyme Methylation Assay Version A (EC50 or EC50 1)

T1 sequence (O14744 whole entry): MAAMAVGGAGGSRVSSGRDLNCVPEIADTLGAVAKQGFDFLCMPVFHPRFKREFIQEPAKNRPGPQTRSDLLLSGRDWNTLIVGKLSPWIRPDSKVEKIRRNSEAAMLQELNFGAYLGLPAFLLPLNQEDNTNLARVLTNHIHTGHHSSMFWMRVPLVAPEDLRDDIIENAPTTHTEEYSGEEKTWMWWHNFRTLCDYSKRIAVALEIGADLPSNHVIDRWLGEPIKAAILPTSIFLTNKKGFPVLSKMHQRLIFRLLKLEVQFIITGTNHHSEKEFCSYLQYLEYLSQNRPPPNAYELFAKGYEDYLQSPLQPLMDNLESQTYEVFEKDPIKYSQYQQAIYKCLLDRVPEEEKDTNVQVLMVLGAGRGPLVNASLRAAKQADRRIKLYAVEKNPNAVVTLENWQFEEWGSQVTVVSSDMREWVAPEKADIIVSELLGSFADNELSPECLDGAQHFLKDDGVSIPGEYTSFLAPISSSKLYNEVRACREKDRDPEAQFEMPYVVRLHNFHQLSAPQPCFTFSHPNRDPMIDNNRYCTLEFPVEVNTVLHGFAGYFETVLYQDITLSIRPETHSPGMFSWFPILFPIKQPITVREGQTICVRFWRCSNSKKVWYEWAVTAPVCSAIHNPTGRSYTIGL
T1 sequence (Q9BQA1 whole entry partner): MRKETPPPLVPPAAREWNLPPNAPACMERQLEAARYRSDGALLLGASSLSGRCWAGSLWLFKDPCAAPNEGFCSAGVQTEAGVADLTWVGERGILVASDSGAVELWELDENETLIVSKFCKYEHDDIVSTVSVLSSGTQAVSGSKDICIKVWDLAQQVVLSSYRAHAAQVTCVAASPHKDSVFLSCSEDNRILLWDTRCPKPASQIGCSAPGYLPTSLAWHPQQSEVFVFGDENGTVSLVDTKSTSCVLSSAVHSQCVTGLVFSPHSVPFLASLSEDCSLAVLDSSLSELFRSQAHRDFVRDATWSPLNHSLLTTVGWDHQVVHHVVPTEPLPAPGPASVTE

| EC50 [1, 3] | EC50 [1, 4] | EC50 [2] | Compound |
| --- | --- | --- | --- |
| 1780 nM | 2.56 nM | 19 nM | O=C(c1ccc2c(c1)NCCN(CC(F)(F)F)C2=O)N1CC[C@]2(Cc3ccccc3CN2)[C@H](O)C1 [Example 170, 8-{[(3R,3′R)-3′-hydroxy-1,4-dihydro-1′H,2H-spiro[isoquinoline-3,4′-piperidin]-1′-yl]carbonyl}-4-(2,2,2-trifluoroethyl)-1,2,3,4-tetrahydro-5H-1,4-benzodiazepin-5-one] |
| – | 1910 nM | ≥ 10000 nM | O=C(c1cc2n(n1)CCS(=O)(=O)C2)N1CC[C@]2(Cc3ccccc3CN2)[C@H](O)C1 [Example 177, (5,5-dioxido-6,7-dihydro-4H-pyrazolo[5,1-c][1,4]thiazin-2-yl)((3R,3′R)-3′-hydroxy-1,4-dihydro-2H-spiro[isoqiuinoline-3,4′-piperidin]-1′-yl)methanone] |
| 85100 nM | 129 nM | 3210 nM | Cc1cc(C)n2nc(C(=O)N3CC[C@]4(Cc5ccccc5CN4)[C@H](O)C3)nc2n1 [Example 178, (5,7-dimethyl-[1,2,4]triazolo[1,5-a]pyrimidin-2-yl)((3R,3′R)-3′-hydroxy-1,4-dihydro-2H-spiro[isoquinoline-3,4′-piperidin]-1′-yl)methanone] |
| 69200 nM | 513 nM | 8760 nM | Cc1cc(C(F)F)n2nc(C(=O)N3CC[C@]4(Cc5ccccc5CN4)[C@H](O)C3)nc2n1 [Example 179, (7-(difluoromethyl)-5-methyl-[1,2,4]triazolo[1,5-a]pyrimidin-2-yl)((3R,3′R)-3′-hydroxy-1,4-dihydro-2H-spiro[isoquinoline-3,4′-piperidin]-1′-yl)methanone] |
| 52500 nM | 51.3 nM | 1320 nM | Cc1nn(C)c2ncc(C(=O)N3CC[C@]4(Cc5ccccc5CN4)[C@H](O)C3)c(Cl)c12 [Example 180, (4-chloro-1,3-dimethyl-1H-pyrazolo[3,4-b]pyridin-5-yl)((3R,3′R)-3′-hydroxy-1,4-dihydro-2H-spiro[isoquinoline-3,4′-piperidin]-1′-yl)methanone] |
| 3980 nM | 20.9 nM | 924 nM | Cc1cc2ncc(C(=O)N3CC[C@]4(Cc5ccccc5CN4)[C@H](O)C3)c(C)n2n1 [Example 181, (2,7-dimethylpyrazolo[1,5-a]pyrimidin-6-yl)((3R,3′R)-3′-hydroxy-1,4-dihydro-2H-spiro[isoquinoline-3,4′-piperidin]-1′-yl)methanone] |
| 1350 nM | 4.57 nM | 155 nM | O=C(c1cc2oc3ccccc3c2cc1O)N1CC[C@]2(Cc3ccccc3CN2)[C@H](O)C1 [Example 182, ((3R,3′R)-3′-hydroxy-1,4-dihydro-2H-spiro[isoquinoline-3,4′-piperidin]-1′-yl)(2-hydroxydibenzo[b,d]furan-3-yl)methanone] |

The next lines start with the compound.

| Compound | EC50 [1, 3] | EC50 [1, 4] | EC50 [2] |
| --- | --- | --- | --- |
| Cc1cnc2nc(C(=O)N3CC[C@]4(Cc5ccccc5CN4)[C@H](O)C3)cn2c1C [Example 127, (5,6-dimethylimidazo[1,2-a]pyrimidin-2-yl)[(3R,3′R)-3′^-hydroxy-1,4-dihydro-1′H,2H-spiro[isoquinoline-3,4′-piperidin]-1′-yl]methanone] | 34300 nM | 61.7 nM | 3950 nM |
| COc1nc2nc(C(=O)N3CC[C@]4(Cc5ccccc5CN4)[C@H](O)C3)cn2cc1C [Example 128, [(3R,3′R)-3′-hydroxy-1,4-dihydro-1′H,2H-spiro[isoquinoline-3,4′-piperidin]-1′-yl](7-methoxy-6-methylimidazo[1,2-a]pyrimidin-2-yl)methanone] | 2690 nM | 5.33 nM | 195 nM |
| O=C(c1cn2cc(O)cnc2n1)N1CC[C@]2(Cc3ccccc3CN2)[C@H](O)C1 [Example 129, [(3R,3′R)-3′-hydroxy-1,4-dihydro-1′H,2H-spiro[isoquinoline-3,4′-piperidin]-1′-yl](6-hydroxyimidazo[1,2-a]pyrimidin-2-yl)methanone] | – | 836 nM | ≥ 10000 nM |
| O=C(c1cn2cc(Br)c(O)cc2n1)N1CC[C@]2(Cc3ccccc3CN2)[C@H](O)C1 [Example 130, (6-bromo-7-hydroxy imidazo[1,2-a]pyridin-2-yl)[(3R,3′R)-3′-hydroxy-1,4-dihydro-1′H,2H-spiro[isoquinoline-3,4′-piperidin]-1′-yl]methanone] | 19700 nM | 21.4 nM | 9600 nM |
| Cc1cn2cc(C(=O)N3CC[C@]4(Cc5ccccc5CN4)[C@H](O)C3)nc2nc1O [Example 131, 2-{[(3R,3′R)-3′-hydroxy-1,4-dihydro-1′H,2H-spiro[isoquinoline-3,4′-piperidin]-1′-yl]carbonyl}-6-methylimidazo[1,2-a]pyrimidin-7(1H)-one] | 74100 nM | 70.8 nM | ≥ 10000 nM |
| COC(C)c1cc(C2CC2)cn2cc(C(=O)N3CC[C@]4(Cc5ccccc5CN4)[C@H](O)C3)nc12 (stereo partly drawn) [Example 132, [6-cyclopropyl-8-(1-methoxyethyl)imidazo[1,2-a]pyridin-2-yl][(3R,3′R)-3′-hydroxy-1,4-dihydro-1′H,2H-spiro[isoquinoline-3,4′-piperidin]-1′-yl]methanone] | 123 nM | 0.244 nM | 6.61 nM |
| CC(C#N)c1cnc2nc(C(=O)N3CC[C@]4(Cc5ccccc5CN4)[C@H](O)C3)cn2c1 (stereo partly drawn) [Example 133, 2-(2-{[(3R,3′R)-3′-hydroxy-1,4-dihydro-1′H,2H-spiro[isoquinoline-3,4′-piperidin]-1′-yl]carbonyl}imidazo[1,2-a]pyrimidin-6-yl)propanenitrile] | 16.2 nM | 3.79 nM | 77.4 nM |
| O=C(c1cn2cc(C3CC3)ncc2n1)N1CC[C@]2(Cc3ccccc3CN2)[C@H](O)C1 [Example 134, (6-cyclopropylimidazo[1,2-a]pyrazin-2-yl)[(3R,3′R)-3′-hydroxy-1,4-dihydro-1′H,2H-spiro[isoquinoline-3,4′-piperidin]-1′-yl]methanone] | – | 143 nM | 184 nM |
| O=C(c1cn2cc(Br)c(C3CC3)nc2n1)N1CC[C@]2(Cc3ccccc3CN2)[C@H](O)C1 [Example 135, (6-bromo-7-cyclopropylimidazo[1,2-a]pyrimidin-2-yl)[(3R,3′R)-3′-hydroxy-1,4-dihydro-1′H,2H-spiro[isoquinoline-3,4′-piperidin]-1′-yl]methanone] | – | 10.6 nM | 6.86 nM |
| Cc1cn2cc(C(=O)N3CC[C@]4(Cc5ccccc5CN4)[C@H](O)C3)nc2c(Br)n1 [Example 138, (8-bromo-6-methylimidazo[1,2-a]pyrazin-2-yl)[(3R,3′R)-3′-hydroxy-1,4-dihydro-1′H,2H-spiro[isoquinoline-3,4′-piperidin]-1′-yl]methanone] | – | 202 nM | 322 nM |
| Cc1nc2ncc(C(=O)N3CC[C@]4(Cc5ccccc5CN4)[C@H](O)C3)n2cc1Br [Example 140, (6-bromo-7-methylimidazo[1,2-a]pyrimidin-3-yl)[(3R,3′R)-3′-hydroxy-1,4-dihydro-1′H,2H-spiro[isoquinoline-3,4′-piperidin]-1′-yl]methanone] | – | 1390 nM | 2090 nM |
| Cc1c(Br)cnc2ncc(C(=O)N3CC[C@]4(Cc5ccccc5CN4)[C@H](O)C3)n12 [Example 141, (6-bromo-5-methylimidazo[1,2-a]pyrimidin-3-yl)[(3R,3′R)-3′-hydroxy-1,4-dihydro-1′H,2H-spiro[isoquinoline-3,4′-piperidin]-1′-yl]methanone] | 3720 nM | 101 nM | 4380 nM |
| O=C(c1ccc2c(O)c(CC(F)(F)F)cnc2c1)N1CC[C@]2(Cc3ccccc3CN2)[C@H](O)C1 [Example 153, ((3R,3′R)-3′-hydroxy-1,4-dihydro-2H-spiro[isoquinoline-3,4′-piperidin]-1′-yl)(4-hydroxy-3-(2,2,2-trifluoroethyl)quinolin-7-yl)methanone] | 2950 nM | 4.3 nM | 414 nM |
| O=C(c1cn2cc(C(F)(F)F)cc(C3CCOC3)c2n1)N1CC[C@]2(Cc3ccccc3CN2)[C@H](O)C1 (stereo partly drawn) [Example 154, ((3R,3′R)-3′-hydroxy-2,4-dihydro-1H-spiro[isoquinoline-3,4′-piperidin]-1′-yl)(8-(tetrahydrofuran-3-yl)-6-(trifluoromethyl)imidazo[1,2-a]pyridin-2-yl)methanone] | 266 nM | 0.802 nM | 4.42 nM |
| O=C(c1cnc2ncc(C(F)(F)F)cn12)N1CC[C@]2(Cc3ccccc3CN2)[C@H](O)C1 [Example 168, [(3R,3′R)-3′-hydroxy-1,4-dihydro-1′H,2H-spiro[isoquinoline-3,4′-piperidin]-1′-yl][6-(trifluoromethyl)imidazo[1,2-a]pyrimidin-3-yl]methanone] | 385 nM | 2.56 nM | 50.2 nM |
| O=C(c1cn2cc(C(F)(F)F)cnc2n1)N1CC[C@]2(Cc3ccccc3CN2)[C@H](O)C1 [Example 169, [(3R,3′R)-3′-hydroxy-1,4-dihydro-1′H,2H-spiro[isoquinoline-3,4′-piperidin]-1′-yl][6-(trifluoromethyl)imidazo[1,2-a]pyrimidin-2-yl]methanone] | 427 nM | 1.51 nM | 89 nM |

From patent publication US12441730B2, “PRMT5 inhibitors” (Merck Sharp & Dohme LLC, priority 2019, dated 2025)
